Source: patent US8603737B2, “Methods for identifying HCV protease inhibitors” (priority 2008, dated 2013)

What was measured:
[1] = tested on: HCV RNA replicon in cell line ET (luc-ubi-neo/ET), human Huh7 hepatoma; experiment: Luciferase reporter replicon assay (Example 5, Method C); type: cell-based; settings: Hepatitis C virus, Huh-7, 72 hr
Procedure: Method C: Luciferase Reporter Assay Protocol
The compounds were assayed to evaluate the antiviral activity and cytotoxicity of compounds using replicon-derived luciferase activity. This assay used the cell line ET (luc-ubi-neo/ET), which is a human Huh7 hepatoma cell line that contains an HCV RNA replicon with a stable luciferase (Luc) reporter and three cell culture-adaptive mutations. The ET cell line was grown in a 5% CO2 incubator at 37° C. in Dulbecco's modified essential media (DMEM), supplemented with 2 mM L-glutamine (“1%”), nonessential amino acids, 100 U of penicillin/mL, 100 μg of streptomycin/mL (“1%”), 10% fetal bovine serum and 400 μg/mL G418 (Geneticin; Invitrogen).
All cell culture reagents were obtained from Invitrogen (Carlsbad). Cells were trypsinized (1% trypsin:EDTA) and plated out at 5×10^3 cells/well in white 96-well assay plates (Costar) dedicated to cell number (cytotoxicity) or antiviral activity assessments. Test compounds were added at six 3-fold serial dilutions each and the assay was run in DMEM, 5% FBS, 1% pen-strep, 1% glutamine, 1% non essential amino acid. Human interferon alpha-2b (PBL Biolabs, New Brunswick, N.J.) was included in each run as a positive control compound. Cells were processed 72 hr post test compound addition when the cells were still subconfluent. Antiviral activity was measured by analyzing replicon-derived luciferase activity using the Steady-Glo Luciferase Assay System (Promega, Madison, Wis.) according to manufacturer's instruction. The number of cells in each well was determined by Cell Titer Blue Assay (Promega). Compound profile was derived by calculating applicable EC50 (effective concentration inhibiting virus replication by 50%), EC90 (effective concentration inhibiting virus replication by 90%), IC50 (concentration decreasing cell viability by 50%) and SI50 (selective index: […]) values.

[2] = molecular target: T1, R155K mutant of the HCV NS3/4A 1b protease enzyme (Hepatitis C virus genotype 1b, UniProt P26663, R1181K); experiment: HCV protease FRET assay, R155K mutant; type: biochemical; settings: read-out: Inhibition, HCV R155K (IC50)
T1 construct: 10× stocks of NS3/4A protease enzyme from Bioenza; purchased Bioenza (Mountain View, Calif.)
Source text: HCV Protease FRET Assay for WT and Mutated NS3/4A 1b Enzymes (IC50 —APP)
The following protocol was used to generate “apparent” IC50 (IC50—APP)) values as depicted in Table 3, below. Without wishing to be bound by any particular theory, it is believed that IC50—APP, contrasted with IC50 values, may provide a more useful indication of time-dependent inhibition, and are thus more representative of binding affinity. The protocol is a modified FRET-based assay (v—03) developed to evaluate compound potency, rank-order and resistance profiles against wild type and C159S, A156S, A156T, D168A, D168V, R155K mutants of the HCV NS3/4A 1b protease enzyme as follows: 10× stocks of NS3/4A protease enzyme from Bioenza (Mountain View, Calif.) and 1.13×5-FAM/QXL™520 FRET peptide substrate from Anaspec (San Jose, Calif.) were prepared in 50 mM Tris-HCl, pH 7.5, 5 mM DTT, 2% CHAPS and 20% glycerol. 5 μL of each enzyme were added to Corning (#3575) 384-well, black, microtiter plates (Corning, N.Y.) after spotting a 0.5 μL volume of 50% DMSO and serially diluted compounds prepared in 50% DMSO. Protease reactions were immediately started after enzyme addition with the addition of 45 μL of the FRET substrate and monitored for 60-90 minutes at λex485/λem520 in a Synergy^4 plate reader from BioTek (Winooski, Vt.). […]

[3] = molecular target: T2, A156T mutant of the HCV NS3/4A 1b protease enzyme (Hepatitis C virus genotype 1b, UniProt P26663, A1182T); experiment: HCV protease FRET assay, A156T mutant; type: biochemical; settings: read-out: Inhibition, HCV A156T (IC50)
T2 construct: 10× stocks of NS3/4A protease enzyme from Bioenza; purchased Bioenza (Mountain View, Calif.)
Procedure: (§1) HCV Protease FRET Assay for Mutated NS3/4A 1b Enzymes
(§2) The protocol is a modified FRET-based assay (v—02) from In Vitro Resistance Studies of HCV Serine Protease Inhibitors, 2004, JBC, vol. 279, No. 17, pp 17508-17514. Inherent potency of compounds was assessed against A156S, A156T, D168A, and D168V mutants of the HCV NS3/4A 1b protease enzyme as follows:
(§3) Assay buffer: 2% CHAPS, 50 mM Tris pH 7.5, 50% glycerol, 2 μM M-2235 (Bachem) substrate. In a 50 μl reaction, add 49 μl assay buffer, 1 μl (1 U) HCV serine protease (Bioenza). Incubate 20 minutes at room temperature. The plate was read at either 350/460 nm (excitation/emission) on a fluorescent micro-plate reader or monitored at one-minute intervals to achieve the kinetic curve.
10× stocks of NS3/4A protease enzyme from Bioenza (Mountain View, Calif.) and 1.13×5-FAM/QXL™520 FRET peptide substrate from Anaspec (San Jose, Calif.) were prepared in 50 mM HEPES, pH 7.8, 100 mM NaCl, 5 mM DTT and 20% glycerol. […] Protease reactions were started with the addition of 45 μL of the FRET substrate and monitored for 120 minutes at λex487/λem514 through Quad^4 monochromoters in a Synergy^4 plate reader from BioTek (Winooski, Vt.). […]

[4] = molecular target: T3, D168V mutant of the HCV NS3/4A 1b protease enzyme (Hepatitis C virus genotype 1b, UniProt P26663, D1194V); experiment: HCV protease FRET assay, D168V mutant; type: biochemical; settings: read-out: Inhibition, HCV D168V (IC50)
T3 construct: 10× stocks of NS3/4A protease enzyme from Bioenza; purchased Bioenza (Mountain View, Calif.)
Procedure: as §1, §2, §3
10× stocks of NS3/4A protease enzyme from Bioenza (Mountain View, Calif.) and 1.13×5-FAM/QXL™520 FRET peptide substrate from Anaspec (San Jose, Calif.) were prepared in 50 mM HEPES, pH 7.8, 100 mM NaCl, 5 mM DTT and 20% glycerol. 5 μL of each enzyme were pre-incubated in a Corning (#3573) 384-well, black, non-treated microtiter plate (Corning, N.Y.) for 30 min at 25° C. with a 0.5 μL volume of 50% DMSO and serially diluted compounds prepared in 50% DMSO. Protease reactions were started with the addition of 45 μL of the FRET substrate and monitored for 120 minutes at λex487/λem514 through Quad^4 monochromoters in a Synergy^4 plate reader from BioTek (Winooski, Vt.). […] Initial velocity (0 minutes to 30+ minutes) from each reaction was determined from the slope of a plot of relative fluorescence units vs time (minutes) and then plotted against inhibitor concentration to estimate IC50 from log[Inhibitor] vs Response, Variable Slope model in GraphPad Prism from GraphPad Software (San Diego, Calif.). […]
The following protocol was used to generate “apparent” IC50 (IC50—APP)) values as depicted in Table 3, below. […] Protease reactions were immediately started after enzyme addition with the addition of 45 μL of the FRET substrate and monitored for 60-90 minutes at λex485/λem520 in a Synergy^4 plate reader from BioTek (Winooski, Vt.). […]

Row | SMILES | EC90 ([1]; EC90, read-out: Inhibition, Replicon, EC90 value) | EC50 ([1]; read-out: Inhibition, Replicon, EC50 value) | IC50 [2] | IC90 ([1]; IC90, read-out: Inhibition, Replicon, IC90 value, Method C) | IC50 ([1]; read-out: Inhibition, Replicon (IC50), Method C) | IC50 [3] | IC50 [4]
1 | CC(C)(C)OC(=O)NC1CN(C(=O)CCl)CCC/C=C\[C@@H]2C[C@@]2(C(=O)NS(=O)(=O)C2CC2)NC(=O)[C@@H]2C[C@@H](OC(=O)N3Cc4cccc(F)c4C3)CN2C1=O (stereo partly shown) [Compound 8] | 0.1 to 1 µM | 0.01 to 0.1 µM | 0.01 to 0.1 µM |  |  |  | 
2 | C=CC(=O)N(C)C[C@H](NC(=O)OC(C)(C)C)C(=O)N1C[C@H](OC(=O)N2Cc3cccc(F)c3C2)C[C@H]1C(=O)N[C@]1(C(=O)NS(=O)(=O)C2CC2)C[C@H]1C=C [Compound 4] |  |  | 0.01 to 0.1 µM | 0.01 to 0.1 µM | < 0.01 µM | < 0.01 µM | 0.01 to 0.1 µM
3 | C=C[C@@H]1C[C@]1(NC(=O)[C@@H]1C[C@@H](Oc2cc(-c3ccccc3)nc3cc(OC)ccc23)CN1C(=O)C(NC(=O)OC(C)(C)C)[C@@H](C)OC(=O)/C=C/C)C(=O)NS(=O)(=O)C1CC1 (stereo partly shown) [Compound 3] |  |  |  |  |  | 0.1 to 1 µM | 1 to 10 µM
